Assay results from patent publication EP4707280A1, “1,4-CINEOLE DERIVATIVE AND INTERMEDIATE THEREOF, HERBICIDE CONTAINING SAID DERIVATIVE AS ACTIVE INGREDIENT, METHOD FOR USING HERBICIDE, AND METHOD FOR PREPARING AGROCHEMICAL COMPOSITION” (HOKKO CHEMICAL INDUSTRY CO., LTD., priority 2023, dated 2024).

Legend:
Format in all cases: in vivo
[1] = system: Scirpus juncoides; assay: Test Example 1: herbicidal effect test by soil application in paddy rice; settings: Schoenoplectiella juncoides, soil, 336 h; 120 g active ingredient per 10 ares; applied immediately after sowing, flooded pots; 14 days after application; read-out: weed inhibition rate
Procedure, shortened: (§1)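 Soil-applied test under flooded paddy conditions (~3 cm water) in a glass greenhouse. Seeds were sown shallow (0–1 cm, 30 per species), then compound was dripped in as diluted emulsifiable concentrate at 120 g a.i./10 a.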

[2] = system: Echinochloa crus-galli var. formosensis; assay: as above; settings: Echinochloa crus-galli, soil, 336 h; 120 g active ingredient per 10 ares; applied immediately after sowing, flooded pots; 14 days after application; read-out: weed inhibition rate
Procedure, shortened: as §1

[3] = system: Monochoria vaginalis; assay: Test Example 2: herbicidal effect test by application during growth period of paddy rice; settings: Pontederia vaginalis; 120 g per 10 ares; applied seven days after sowing, flooded pots; 14 days after application; read-out: weed inhibition rate
Procedure, shortened: (§2)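 Greenhouse pots of flooded paddy soil, seeded shallowly with 30 seeds per weed, are treated on day 7 by dropper with diluted emulsifiable concentrate equal to 120 g a.i./10 a. Duplicate pots are scored for inhibition rate 14 days post-application.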

[4] = system: Scirpus juncoides; assay: as above; settings: Schoenoplectiella juncoides; 120 g per 10 ares; applied seven days after sowing, flooded pots; 14 days after application; read-out: weed inhibition rate
Procedure, shortened: as §2

[5] = system: Echinochloa crus-galli var. formosensis; assay: as above; settings: Echinochloa crus-galli; 120 g per 10 ares; applied seven days after sowing, flooded pots; 14 days after application; read-out: weed inhibition rate
Procedure, shortened: as §2

[6] = system: Monochoria vaginalis; assay: Test Example 1: herbicidal effect test by soil application in paddy rice; settings: Pontederia vaginalis, soil, 336 h; 120 g active ingredient per 10 ares; applied immediately after sowing, flooded pots; 14 days after application; read-out: weed inhibition rate
Procedure: Wagner pots with an area of […] were filled with paddy soil, followed by addition of water and incorporation of chemical fertilizer (N:P:K = 16:16:16), after which puddling was performed. After that, seeds of Echinochloa crus-galli var. formosensis, broad-leaved weeds (Lindernia pyxidaria and Monochoria vaginalis), and Scirpus juncoides were sown at a depth of 0 cm to 1 cm, 30 seeds each. Immediately after sowing, the pots were flooded and a water depth of approximately 3 cm was maintained. Subsequent management was conducted in a glass greenhouse. Immediately thereafter, an emulsifiable concentrate prepared according to Formulation Example 5 using the compound shown below was diluted with water, and a specified amount of the diluted solution was applied by dropper. The amount of the active ingredient to be applied was equivalent to 120 g per 10 ares.
The present test was conducted in duplicate for each chemical concentration group, and the weed inhibition rate (%) was determined 14 days after chemical application using the following formula (Math. 1). [formula]

[7] = system: Echinochloa crus-galli; assay: Test Example 4: herbicidal effect test by stem and leaf treatment in upland field; settings: Echinochloa crus-galli; 120 g per 10 ares; sprayed seven days after sowing, upland soil; 14 days after application; read-out: weed inhibition rate
[8] = system: Digitaria ciliaris; assay: as above; settings: Digitaria ciliaris; 120 g per 10 ares; sprayed seven days after sowing, upland soil; 14 days after application; read-out: weed inhibition rate
[9] = system: Digitaria ciliaris; assay: Test Example 3: herbicidal effect test by soil application in upland field; settings: Digitaria ciliaris, 120 g per 10 ares, sprayed one day after sowing, 14 days after application, read-out: weed inhibition rate
Procedure, shortened: (§3)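 Pre-emergence test: seeds mixed into top 1 cm of alluvial loam upland soil in pots; emulsifiable concentrate diluted in water sprayed on soil one day after sowing at 100 L/10 a, 120 g a.i./10 a. Weed inhibition rate (%) scored at 14 days, in duplicate.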

[10] = system: Echinochloa crus-galli; assay: as above; settings: Echinochloa crus-galli, 120 g per 10 ares, sprayed one day after sowing, 14 days after application, read-out: weed inhibition rate
Procedure, shortened: as §3

[11] = system: Digitaria ciliaris; assay: Test Example 7: herbicidal effect test by soil application in upland field (low dose); settings: Digitaria ciliaris, 7.5 g per 10 ares, sprayed one day after sowing, 14 days after application, read-out: weed inhibition rate
Procedure, shortened: (§4)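 Duplicate pots of alluvial loam, seeds incorporated in the surface 1 cm. Soil surface sprayed 1 d after sowing (EC in water, 100 L/10 a; 7.5 g a.i./10 a). Endpoint: % inhibition, day 14.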

[12] = system: Echinochloa crus-galli; assay: as above; settings: Echinochloa crus-galli, 7.5 g per 10 ares, sprayed one day after sowing, 14 days after application, read-out: weed inhibition rate
Procedure, shortened: as §4

[13] = system: Echinochloa crus-galli var. formosensis; assay: Test Example 6: herbicidal effect test by application during growth period of paddy rice (low dose); settings: Echinochloa crus-galli; 7.5 g per 10 ares; applied seven days after sowing, flooded pots; 14 days after application; read-out: weed inhibition rate
Procedure, shortened: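 Low-dose water application, 7.5 g a.i. per 10 ares, given by dropper into flooded pots (about 3 cm depth) 7 days after sowing of 30 weed seeds each at 0–1 cm. Evaluation of inhibition (%) took place 14 days later, duplicate per rate.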

[14] = system: Echinochloa crus-galli var. formosensis; assay: Test Example 5: herbicidal effect test by soil application in paddy rice (low dose); settings: Echinochloa crus-galli, soil, 336 h; 7.5 g per 10 ares; applied immediately after sowing, flooded pots; 14 days after application; read-out: weed inhibition rate
Procedure, shortened: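 7.5 g a.i./10 a applied by dropper into ~3 cm floodwater immediately post-sowing (seeds 0–1 cm, 30 per species; puddled fertilized paddy soil, glasshouse). Duplicates; day-14 inhibition %.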

[15] = system: Digitaria ciliaris; assay: Test Example 8: herbicidal effect test by stem and leaf treatment in upland field (low dose); settings: Digitaria ciliaris; 7.5 g per 10 ares; sprayed seven days after sowing, upland soil; 14 days after application; read-out: weed inhibition rate
[16] = system: Echinochloa crus-galli; assay: as above; settings: Echinochloa crus-galli; 7.5 g per 10 ares; sprayed seven days after sowing, upland soil; 14 days after application; read-out: weed inhibition rate

Cc1ccccc1CO[C@H]1C[C@]2(C)O[C@@]1(C(C)C)C[C@H]2OCc1ccccc1C [1-597, (1S,2R,4R,5S)-1-methyl-2,5-bis[(2-methylphenyl)methoxy]-4-isopropyl-7-oxabicyclo[2.2.1]heptane]
≥ 80%: pest or weed control at 1200 g/ha [1] | pest or weed control at 1200 g/ha [2] | inhibition at 1200 g/ha [3] | inhibition at 1200 g/ha [4] | inhibition at 1200 g/ha [5] | pest or weed control at 1200 g/ha [6] | inhibition at 1200 g/ha [7] | inhibition at 1200 g/ha [8]

CC(C)[C@]12C[C@@H](OCc3ccccc3F)[C@](C)(CC13OCCO3)O2 [1-936, (1R,4S,5R)-5-((2-fluorobenzyl)oxy)-1-isopropyl-4-methyl-7-oxaspiro[bicyclo[2.2.1]heptane-2,2'-[1,3]dioxolane]]
≥ 80%: pest or weed control at 1200 g/ha [1] | pest or weed control at 1200 g/ha [2] | inhibition at 1200 g/ha [9] | inhibition at 1200 g/ha [10] | inhibition at 1200 g/ha [5] | pest or weed control at 1200 g/ha [6] | inhibition at 1200 g/ha [7]

CC(C)[C@]12C[C@@H](OCc3ccccc3)[C@](C)(CC1=O)O2 [2-1, (1R,4S,5R)-5-(benzyloxy)-1-isopropyl-4-methyl-7-oxabicyclo[2.2.1]heptan-2-one]
≥ 80%: pest or weed control at 1200 g/ha [2] | inhibition at 1200 g/ha [9] | inhibition at 1200 g/ha [10] | inhibition at 1200 g/ha [3] | inhibition at 1200 g/ha [5] | pest or weed control at 1200 g/ha [6] | inhibition at 1200 g/ha [7] | inhibition at 1200 g/ha [8]

CC(C)[C@]12C[C@@H](OCc3ccccc3C#N)[C@](C)(CC1=O)O2 [2-354, 2-((((1S,2R,4R)-4-isopropyl-1-methyl-5-oxo-7-oxabicyclo[2.2.1]heptan-2-yl)oxy)methyl)benzonitrile]
≥ 80%: pest or weed control at 1200 g/ha [1] | pest or weed control at 1200 g/ha [2] | inhibition at 75 g/ha [11] | inhibition at 75 g/ha [12] | inhibition at 1200 g/ha [9] | inhibition at 1200 g/ha [10] | inhibition at 1200 g/ha [4] | inhibition at 1200 g/ha [5] | pest or weed control at 1200 g/ha [6] | inhibition at 1200 g/ha [7] | inhibition at 75 g/ha [13] | inhibition at 75 g/ha [14] | inhibition at 1200 g/ha [8]

Cc1ccccc1CO[C@@H]1C[C@]2(C(C)C)O[C@@]1(C)C=C2c1ccccc1 [3-175, (1R,4S,5R)-1-isopropyl-4-methyl-5-((2-methylbenzyl)oxy)-2-phenyl-7-oxabicyclo[2.2.1]hept-2-ene]
≥ 80%: pest or weed control at 1200 g/ha [2] | inhibition at 1200 g/ha [9] | inhibition at 1200 g/ha [10] | inhibition at 1200 g/ha [3] | inhibition at 1200 g/ha [5] | pest or weed control at 1200 g/ha [6] | inhibition at 1200 g/ha [7] | inhibition at 1200 g/ha [8]

CC(C)[C@]12C[C@@H](OCc3ccccc3F)[C@](C)(C=C1c1ccccc1)O2 [3-177, (1R,4S,5R)-5-((2-fluorobenzyl)oxy)-1-isopropyl-4-methyl-2-phenyl-7-oxabicyclo[2.2.1]hept-2-ene]
≥ 80%: pest or weed control at 1200 g/ha [1] | pest or weed control at 1200 g/ha [2] | inhibition at 1200 g/ha [9] | inhibition at 1200 g/ha [10] | inhibition at 1200 g/ha [3] | inhibition at 1200 g/ha [4] | inhibition at 1200 g/ha [5] | pest or weed control at 1200 g/ha [6] | inhibition at 1200 g/ha [7] | inhibition at 75 g/ha [13] | inhibition at 1200 g/ha [8]

CC(C)C12C=CC(C)(O1)C(OCc1ccccn1)C2 (stereo not shown) [3-755, 2-[(1-methyl-4-isopropyl-7-oxabicyclo[2.2.1]hept-5-en-2-yl)oxymethyl]pyridine]
≥ 80%: inhibition at 75 g/ha [15] | inhibition at 75 g/ha [16] | pest or weed control at 1200 g/ha [1] | pest or weed control at 1200 g/ha [2] | inhibition at 75 g/ha [11] | inhibition at 75 g/ha [12] | inhibition at 1200 g/ha [9] | inhibition at 1200 g/ha [10] | inhibition at 1200 g/ha [4] | inhibition at 1200 g/ha [5] | inhibition at 1200 g/ha [7] | inhibition at 75 g/ha [13] | inhibition at 75 g/ha [14] | inhibition at 1200 g/ha [8]

CC(C)C12C=CC(C)(O1)C(OCc1cccs1)C2 (stereo not shown) [3-756, 1-isopropyl-4-methyl-5-(2-thienylmethoxy)-7-oxabicyclo[2.2.1]hept-2-ene]
≥ 80%: inhibition at 75 g/ha [15] | inhibition at 75 g/ha [16] | pest or weed control at 1200 g/ha [1] | pest or weed control at 1200 g/ha [2] | inhibition at 75 g/ha [11] | inhibition at 75 g/ha [12] | inhibition at 1200 g/ha [9] | inhibition at 1200 g/ha [10] | inhibition at 1200 g/ha [4] | inhibition at 1200 g/ha [5] | inhibition at 1200 g/ha [7] | inhibition at 75 g/ha [13] | inhibition at 75 g/ha [14] | inhibition at 1200 g/ha [8]

CC(C)C12C=CC(C)(O1)C(OCc1ccsc1)C2 (stereo not shown) [3-757, 1-isopropyl-4-methyl-5-(3-thienylmethoxy)-7-oxabicyclo[2.2.1]hept-2-ene]
≥ 80%: inhibition at 75 g/ha [15] | inhibition at 75 g/ha [16] | pest or weed control at 1200 g/ha [1] | pest or weed control at 1200 g/ha [2] | inhibition at 75 g/ha [11] | inhibition at 75 g/ha [12] | inhibition at 1200 g/ha [9] | inhibition at 1200 g/ha [10] | inhibition at 1200 g/ha [4] | inhibition at 1200 g/ha [5] | inhibition at 1200 g/ha [7] | inhibition at 75 g/ha [13] | inhibition at 75 g/ha [14] | inhibition at 1200 g/ha [8]
